{"source": "the NIST ThermoML archive (doi:10.1016/j.jct.2019.02.010)", "key": {"[1]": {"assay": "xn = mol fraction of the nth substance listed", "conditions": "for viscosity / mass density: 101.3 kPa, Liquid; for viscosity: Falling or rolling sphere viscometry; for mass density: Vibrating tube method; for surface tension liquid-gas: 298.15 K, Ring tensiometer"}, "[2]": {"conditions": "101.33 kPa; for mass density: Vibrating tube method; for viscosity: Falling or rolling sphere viscometry"}}, "note": "Numbers after ± are expanded uncertainties.", "data": [{"smiles": "C[N+](C)(C)CCO.[Cl-]", "note": "[choline chloride] + OCCO", "values": [{"measurement": "viscosity", "setting": "[1]; 293.15 K, x1 = 0.334", "result": "58.81 ± 7.1", "unit": "mPa·s"}, {"measurement": "mass density", "setting": "[1]; 293.15 K, x1 = 0.334", "result": "1119.5 ± 8.1", "unit": "kg/m3"}, {"measurement": "surface tension liquid-gas", "setting": "[1]; x1 = 0.334", "result": "45.66 ± 2.1", "unit": "mN/m"}, {"measurement": "viscosity", "setting": "[1]; 303.15 K, x1 = 0.334", "result": "38.9 ± 4.7", "unit": "mPa·s"}, {"measurement": "mass density", "setting": "[1]; 303.15 K, x1 = 0.334", "result": "1113.9 ± 8.1", "unit": "kg/m3"}, {"measurement": "viscosity", "setting": "[1]; 313.15 K, x1 = 0.334", "result": "27.04 ± 3.2", "unit": "mPa·s"}, {"measurement": "mass density", "setting": "[1]; 313.15 K, x1 = 0.334", "result": "1108.1 ± 8.1", "unit": "kg/m3"}, {"measurement": "viscosity", "setting": "[1]; 323.15 K, x1 = 0.334", "result": "19.74 ± 2.4", "unit": "mPa·s"}, {"measurement": "mass density", "setting": "[1]; 323.15 K, x1 = 0.334", "result": "1102.5 ± 8.1", "unit": "kg/m3"}, {"measurement": "viscosity", "setting": "[1]; 333.15 K, x1 = 0.334", "result": "14.69 ± 1.8", "unit": "mPa·s"}, {"measurement": "mass density", "setting": "[1]; 333.15 K, x1 = 0.334", "result": "1096.9 ± 8.1", "unit": "kg/m3"}]}, {"smiles": "CC(=O)CCC(=O)O", "note": "[4-oxopentanoic acid] + C[N+](C)(C)CCO.[Cl-]", "values": [{"measurement": "viscosity", "setting": "[1]; 293.15 K, x2 = 0.333", "result": "362.08 ± 49", "unit": "mPa·s"}, {"measurement": "mass density", "setting": "[1]; 293.15 K, x2 = 0.333", "result": "1141.9 ± 8.1", "unit": "kg/m3"}, {"measurement": "surface tension liquid-gas", "setting": "[1]; x2 = 0.333", "result": "39.95 ± 2.1", "unit": "mN/m"}, {"measurement": "viscosity", "setting": "[1]; 303.15 K, x2 = 0.333", "result": "183.72 ± 23", "unit": "mPa·s"}, {"measurement": "mass density", "setting": "[1]; 303.15 K, x2 = 0.333", "result": "1135.2 ± 8.1", "unit": "kg/m3"}, {"measurement": "viscosity", "setting": "[1]; 313.15 K, x2 = 0.333", "result": "103.46 ± 13", "unit": "mPa·s"}, {"measurement": "mass density", "setting": "[1]; 313.15 K, x2 = 0.333", "result": "1128.5 ± 8.1", "unit": "kg/m3"}, {"measurement": "viscosity", "setting": "[1]; 323.15 K, x2 = 0.333", "result": "62.8 ± 7.6", "unit": "mPa·s"}, {"measurement": "mass density", "setting": "[1]; 323.15 K, x2 = 0.333", "result": "1121.9 ± 8.1", "unit": "kg/m3"}, {"measurement": "viscosity", "setting": "[1]; 333.15 K, x2 = 0.333", "result": "39.59 ± 4.8", "unit": "mPa·s"}, {"measurement": "mass density", "setting": "[1]; 333.15 K, x2 = 0.333", "result": "1115.3 ± 8.1", "unit": "kg/m3"}]}, {"smiles": "CC(=O)CCC(=O)O", "note": "[4-oxopentanoic acid]", "values": [{"measurement": "mass density", "setting": "[2]; 293.15 K, Metastable liquid", "result": "1140.1 ± 8.1", "unit": "kg/m3"}, {"measurement": "mass density", "setting": "[2]; 303.15 K, Metastable liquid", "result": "1131.6 ± 8.1", "unit": "kg/m3"}, {"measurement": "mass density", "setting": "[2]; 313.15 K, Metastable liquid", "result": "1123 ± 8.1", "unit": "kg/m3"}, {"measurement": "mass density", "setting": "[2]; 323.15 K, Metastable liquid", "result": "1114.5 ± 8.1", "unit": "kg/m3"}, {"measurement": "mass density", "setting": "[2]; 333.15 K, Metastable liquid", "result": "1105.9 ± 8.1", "unit": "kg/m3"}, {"measurement": "mass density", "setting": "[2]; 343.15 K, Metastable liquid", "result": "1097.4 ± 8.1", "unit": "kg/m3"}]}, {"smiles": "CCCCO", "note": "[butan-1-ol]", "values": [{"measurement": "viscosity", "setting": "[2]; 293.15 K, Liquid", "result": "2.95 ± 0.35", "unit": "mPa·s"}, {"measurement": "mass density", "setting": "[2]; 293.15 K, Liquid", "result": "809.5 ± 8", "unit": "kg/m3"}, {"measurement": "viscosity", "setting": "[2]; 303.15 K, Liquid", "result": "2.28 ± 0.27", "unit": "mPa·s"}, {"measurement": "mass density", "setting": "[2]; 303.15 K, Liquid", "result": "801.9 ± 8", "unit": "kg/m3"}, {"measurement": "viscosity", "setting": "[2]; 313.15 K, Liquid", "result": "1.79 ± 0.22", "unit": "mPa·s"}, {"measurement": "mass density", "setting": "[2]; 313.15 K, Liquid", "result": "794.1 ± 8", "unit": "kg/m3"}, {"measurement": "viscosity", "setting": "[2]; 323.15 K, Liquid", "result": "1.42 ± 0.17", "unit": "mPa·s"}, {"measurement": "mass density", "setting": "[2]; 323.15 K, Liquid", "result": "786.2 ± 8", "unit": "kg/m3"}, {"measurement": "viscosity", "setting": "[2]; 333.15 K, Liquid", "result": "1.15 ± 0.14", "unit": "mPa·s"}, {"measurement": "mass density", "setting": "[2]; 333.15 K, Liquid", "result": "778.1 ± 8", "unit": "kg/m3"}]}, {"smiles": "C[N+](C)(C)CCO.[Cl-]", "note": "[choline chloride] + Oc1ccccc1", "values": [{"measurement": "viscosity", "setting": "[1]; 293.15 K, x1 = 0.333", "result": "129.98 ± 16", "unit": "mPa·s"}, {"measurement": "mass density", "setting": "[1]; 293.15 K, x1 = 0.333", "result": "1099.4 ± 8.1", "unit": "kg/m3"}, {"measurement": "surface tension liquid-gas", "setting": "[1]; x1 = 0.333", "result": "35.46 ± 2.1", "unit": "mN/m"}, {"measurement": "viscosity", "setting": "[1]; 303.15 K, x1 = 0.333", "result": "74 ± 8.9", "unit": "mPa·s"}, {"measurement": "mass density", "setting": "[1]; 303.15 K, x1 = 0.333", "result": "1093.4 ± 8.1", "unit": "kg/m3"}, {"measurement": "viscosity", "setting": "[1]; 313.15 K, x1 = 0.333", "result": "44.33 ± 5.3", "unit": "mPa·s"}, {"measurement": "mass density", "setting": "[1]; 313.15 K, x1 = 0.333", "result": "1087.4 ± 8.1", "unit": "kg/m3"}, {"measurement": "viscosity", "setting": "[1]; 323.15 K, x1 = 0.333", "result": "30.23 ± 3.6", "unit": "mPa·s"}, {"measurement": "mass density", "setting": "[1]; 323.15 K, x1 = 0.333", "result": "1081.5 ± 8.1", "unit": "kg/m3"}, {"measurement": "viscosity", "setting": "[1]; 333.15 K, x1 = 0.333", "result": "21.5 ± 2.6", "unit": "mPa·s"}, {"measurement": "mass density", "setting": "[1]; 333.15 K, x1 = 0.333", "result": "1075.6 ± 8.1", "unit": "kg/m3"}]}]}
